In patent US11970435B2, “Taste-modified creatine salts, compounds, compositions and uses thereof” (Augusta University Research Institute, Inc., priority 2017, dated 2024):
Several values for one entry are separate records, joined by “and”; a condition that tells them apart may be missing. Equal values may be shown once. Where a name gives a salt, the structure may show the parent alone.

Columns and labels:
[1] = isolated product
[2] = Stability study: decomposition of creatine salts to creatinine in water, LC-MS/MS; assay type: physicochemical; details: for Creatinine, % / Salt, %: distilled water, 20° C.; for decomposition: at first, time intervals of 8 hours, water; for Formation of creatinine: deionized water, room temperature, period of 333 hours
Protocol: Mobile phase was 50% water and 50% acetonitrile with 0.1% formic acid in each. Column was a 2 mm×15 cm C18 column with 3 um particles. Flow rate 0.2 mL/min.
Samples were dissolved in distilled water and kept at 20° C. Mass spectrometry used a Waters Premier XE triple quadrupole mass spectrometer. Liquid chromatography used a Waters Acquity UPLC system.
Experiment was double checked with two simultaneous injections of each sample in various time intervals.

C[C@H](CCC(=O)NCCS(=O)(=O)O)[C@H]1CC[C@H]2[C@@H]3[C@H](O)C[C@@H]4C[C@H](O)CC[C@]4(C)[C@H]3C[C@H](O)[C@]12C [Salt 26, Amino((2-ethoxy-2-oxoethyl)(methyl)amino)methaniminium 2-((R)-4-((3R,5S, 7R, 8R,9S,10S,12S,13R,14S,17R)-3,7,12-trihydroxy-10,13-dimethylhexadecahydro-1H-cyclopenta[a]phenanthren-17-yl)pentanamido)ethane-1-sulfonate]
solubility in organic solvents and water [1]: readily soluble

Amino((carboxymethyl)(methyl)amino)methaniminium 6-methyl-4-oxo-4H-1,2,3-oxathiazin-3-ide 2,2-dioxide [Salt 21a]
Creatinine, % ([2]; 0 Hrs): 0.4% | Salt, % ([2]; 0 Hrs): 99.6% | Creatinine, % ([2]; 8 Hrs): 0.4% | Salt, % ([2]; 8 Hrs): 99.6% | Creatinine, % ([2]; 16 Hrs): 0.4% | Salt, % ([2]; 16 Hrs): 99.6% | Creatinine, % ([2]; 24 Hrs): 0.5% | Salt, % ([2]; 24 Hrs): 99.5% | Creatinine, % ([2]; 32 Hrs): 0.5% and 0.4% | Salt, % ([2]; 32 Hrs): 99.5% and 99.6% | Creatinine, % ([2]; 40 Hrs): 0.5% | Salt, % ([2]; 40 Hrs): 99.5% | Creatinine, % ([2]; 48 Hrs): 0.5% | Salt, % ([2]; 48 Hrs): 99.5% | Creatinine, % ([2]; 56 Hrs): 0.5% | Salt, % ([2]; 56 Hrs): 99.5% | Creatinine, % ([2]; 64 Hrs): 0.5% | Salt, % ([2]; 64 Hrs): 99.5% | Creatinine, % ([2]; 72 Hrs): 0.5% | Salt, % ([2]; 72 Hrs): 99.5% | Creatinine, % ([2]; 138 Hrs): 0.6% | Salt, % ([2]; 138 Hrs): 99.4% | Creatinine, % ([2]; 166 Hrs): 0.7% | Salt, % ([2]; 166 Hrs): 99.3% | Creatinine, % ([2]; 190 Hrs): 0.7% | Salt, % ([2]; 190 Hrs): 99.3% | Creatinine, % ([2]; 214 Hrs): 0.8% and 0.7% | Salt, % ([2]; 214 Hrs): 99.2% and 99.3% | Creatinine, % ([2]; 240 Hrs): 0.8% | Salt, % ([2]; 240 Hrs): 99.2% | Creatinine, % ([2]; 287 Hrs): 0.9% | Salt, % ([2]; 287 Hrs): 99.1% | Creatinine, % ([2]; 310 Hrs): 0.9% | Salt, % ([2]; 310 Hrs): 99.1% | Creatinine, % ([2]; 333 Hrs): 1.0% | Salt, % ([2]; 333 Hrs): 99.0% | decomposition [2]: under 0.5% | Formation of creatinine [2]: ≤ 1%

CN(CC(=O)O)C(=N)N.Cl [Salt 4, creatine hydrochloride]
Creatinine, % ([2]; 0 Hrs, hydrochloride): 1.8% and 1.7% | Salt, % ([2]; 0 Hrs, hydrochloride): 98.2% and 98.3% | Creatinine, % ([2]; 8 Hrs): 2.5% | Salt, % ([2]; 8 Hrs): 97.5% | Creatinine, % ([2]; 16 Hrs): 2.4% | Salt, % ([2]; 16 Hrs): 97.6% | Creatinine, % ([2]; 24 Hrs): 2.5% | Salt, % ([2]; 24 Hrs): 97.5% | Creatinine, % ([2]; 32 Hrs, hydrochloride): 2.4% and 2.5% | Salt, % ([2]; 32 Hrs, hydrochloride): 97.6% and 97.5% | Creatinine, % ([2]; 40 Hrs, hydrochloride): 2.4% and 2.5% | Salt, % ([2]; 40 Hrs, hydrochloride): 97.6% and 97.5% | Creatinine, % ([2]; 48 Hrs): 2.5% | Salt, % ([2]; 48 Hrs): 97.5% | Creatinine, % ([2]; 56 Hrs, hydrochloride): 2.5% and 2.4% | Salt, % ([2]; 56 Hrs, hydrochloride): 97.5% and 97.6% | Creatinine, % ([2]; 64 Hrs): 2.5% | Salt, % ([2]; 64 Hrs): 97.5% | Creatinine, % ([2]; 72 Hrs, hydrochloride): 2.5% and 2.6% | Salt, % ([2]; 72 Hrs, hydrochloride): 97.5% and 97.4% | Creatinine, % ([2]; 138 Hrs, hydrochloride): 3.0% and 2.8% | Salt, % ([2]; 138 Hrs, hydrochloride): 97.0% and 97.2% | Creatinine, % ([2]; 166 Hrs): 3.0% | Salt, % ([2]; 166 Hrs): 97.0% | Creatinine, % ([2]; 190 Hrs): 3.0% | Salt, % ([2]; 190 Hrs): 97.0% | Creatinine, % ([2]; 214 Hrs, hydrochloride): 3.1% and 3.3% | Salt, % ([2]; 214 Hrs, hydrochloride): 96.9% and 96.7% | Creatinine, % ([2]; 240 Hrs, hydrochloride): 3.0% and 3.3% | Salt, % ([2]; 240 Hrs, hydrochloride): 97.0% and 96.7% | Creatinine, % ([2]; 287 Hrs, hydrochloride): 3.2% and 3.5% | Salt, % ([2]; 287 Hrs, hydrochloride): 96.8% and 96.5% | Creatinine, % ([2]; 310 Hrs, hydrochloride): 3.3% and 3.6% | Salt, % ([2]; 310 Hrs, hydrochloride): 96.7% and 96.4% | Creatinine, % ([2]; 333 Hrs, hydrochloride): 3.6% and 3.5% | Salt, % ([2]; 333 Hrs, hydrochloride): 96.4% and 96.5% | decomposition [2]: < 2.5% | Formation of creatinine [2]: ≤ 3.6%
